Key:
[1] = tested on: NIH/3T3 cell line - immortalized mouse fibroblasts; experiment: Crystal violet cytotoxicity test in normal cells; type: cell-based; details: summary statement; normal cells NIH/3T3 and PER49
Description: To evaluate the toxicity of the tested compound on normal cells, the NIH/3T3 cell line - immortalized mouse fibroblasts and normal pericytes (PER49) were used.
(§1) As a research model, colon cancer and lung cancer cell lines (sensitive lines) were used, including SW620, SW480, and COR-L23, respectively, which are characterized by the KRASG12V gene mutation and lack of other alterations in genes belonging to the RAS protein signaling pathway, as well as a stable line of normal cells (mouse fibroblasts), which serve as a platform for evaluating the impact of tested compounds on non-cancer cells. Below is the result for one of the analyzed cell lines with the mutation. Similar differences in IC50 values compared to normal cells were obtained for the other cell lines mentioned above with the RASG12V mutation.
(§2) The effect of molecules on the biology of selected cell lines to assess their cytotoxicity using the IC50 indicator was carried out according to the protocol below: • 1. The cells of the tested lines were seeded in wells of a 96-well plate at specified densities. • 2. After seeding, the cells were subjected to a 24-hour incubation in medium with a 1% and 2.5% addition of serum (sensitive lines) or in medium with a 0.5% addition of serum (normal line). • 3. The cells were exposed to selected molecules at selected concentrations. The control was provided by the culture medium without any added compounds. Concentrations of the tested molecules [uM]: • □ NIH3T3: 500; 250; 125; 62,5; 31,25 • □ SW620: 60; 30; 15; 7,5; 3,75 • 4. After 72 hours of incubation, the culture medium was removed and the cells were washed twice with buffer saline solution (PBS). Then, the cells were incubated for 10 minutes with a 0.1% solution of crystal violet at room temperature (Merck Millipore). • 5. After 10 minutes, the crystal violet solution was removed and the wells of the 96-well plate were washed twice with PBS solution. • 4. 50% ice-cold acetic acid solution was added to each well and incubated again for 10 minutes at room temperature on a shaker at 650 rpm. • 5. Absorbance measurement was performed using a plate reader, at a wavelength of λ = 540 nm

BALB/c mice = experiment: Acute toxicity after oral administration (Acute Toxicity test TG425); type: in vivo; details: female BALB/c mice, oral by gastric probe, 40 mg of substance in corn oil, three mice, observed two weeks
Description: The study was planned according to Acute Toxicity Test 425 (oral administration) - higher-lower-dose procedure, in accordance with the OECD regulation of October 3, 2008. The test procedure described in these guidelines is useful in minimizing the number of animals needed to estimate the acute toxicity after oral administration of potential drugs. In addition to the LD50 assessment and confidence intervals, the test allows for the observation of signs of toxicity. For this purpose, an experiment was agreed upon with the Local Ethics Committee for Animal Experimentation, using BALB/c mice. The TG425 method allows for the estimation of LD50 values with confidence intervals, and the results allow for the classification of substances according to the global harmonized system for the classification of chemicals that cause acute toxicity.
A sequential test, utilizing a maximum of 5 animals, was applied, which is known as the limit test. A test dose of either 2000 or uniquely 5000 mg/kg can be used. The testing procedures at 2000 and 5000 mg/kg differ slightly (see Sections 23-25 for the limit test at 2000 mg/kg and Sections 26-30 for the limit test at 5000 mg/kg). The selection of a sequential testing plan increases the statistical power, and a deliberate deviation from the limit test rejection procedure was made for compounds with an LD50 near the limit dose; i.e. committing an error on the side of caution. As with any limit test protocol, the probability of correct compound classification will decrease, as the actual LD50 value more closely resembles the limit dose.
• 1. Female Balb/c mice, which were 50-56 days postpartum, were used for the purposes of this experiment. • 2. Mice underwent a 1-week quarantine after being transported to the laboratory. • 3. The studied molecules (PER154A, PER160A, PER170A, PER176A) were suspended according to the TG425 protocol, i.e. 40 mg of substance in […] of laboratory corn oil and orally administered through a plastic gastro probe (used: 20ga (0.9 mm OD x 0.5 mm ID), 38 mm), which was suitable for the size of the animal (17-21 g). The mice were observed and weighed almost daily. • 4. Mouse housing conditions: up to 4 mice per cage; temperature: 23.2 - 23.40°C; humidity: 27.6 - 40.9% relative humidity. • 5. Two weeks later (time counted separately for each mouse), a resection was performed to analyze internal organs for any abnormalities.

[2] = tested on: SW620 cells (with RASG12V mutation); experiment: Crystal violet cytotoxicity test (IC50) in KRASG12V positive cells; type: cell-based; details: summary statement
Description: IC50 (half-maximal inhibitory concentration) is the concentration value of a tested compound which inhibits biochemical and biological functions of cells in half of the tested population. Determining this indicator is extremely important for assessing the cytotoxicity of molecules with therapeutic potential.
The first step in developing the methodology for determining IC50 was to conduct density tests to determine the appropriate number of cells to use in cytotoxicity tests. The different content of bovine fetal serum in the culture medium was also investigated to rule out any potential impact on the reduction in cell count, regardless of the analyzed molecules.
as §1, §2

NCI-H1975 = experiment: Toxicity against cancer cells expressing wild type RAS; type: cell-based; details: summary statement
Description: The results of in vitro analyses were presented in the examples. Commercially available cancer cell lines were used for the studies, including SW480, SW620, and COR-L23, showing endogenous expression of KRASG12V, as well as a cell line with exogenously introduced KRASG12V mutation (using methods of genetic engineering) - the DK-MGEGFRvIIIKRASG12V line. Additionally, the cancer cell line NCI- H1975, characterized by the expression of wild type RASWT proteins, was also analyzed.

Cc1ccc(NC(=O)c2ccc3c(c2)C2C4CCC(C4)C2C(c2ccccc2)N3)cc1C (centres unmarked) [PER170A]
toxicity against normal cells [1]: no toxicity | safety in acute oral toxicity test (BALB/c mice): safe for mice | toxicity against cancer cells expressing KRASG12V [2]: toxicity | toxicity against cancer cells expressing normal RAS protein (NCI-H1975): no toxicity

O=C(Nc1ccc(Br)c(Cl)c1)c1ccc2c(c1)C1C3CCC(C3)C1C(c1ccccc1)N2 (centres unmarked) [PER176A]
toxicity against normal cells [1]: no toxicity | safety in acute oral toxicity test (BALB/c mice): safe for mice | toxicity against cancer cells expressing KRASG12V [2]: toxicity | toxicity against cancer cells expressing normal RAS protein (NCI-H1975): no toxicity
